Results as given in patent publication US9314458B2, “Topical use of ingenol-3-angelate or a salt thereof to treat skin cancer” (LEO Laboratories Limited, priority 2000, dated 2016).

Tests used:
[1] = biological target: T1, PKCθ (Homo sapiens, UniProt Q04759); experiment: EGFP-PKC translocation in HeLa cells (PKCθ); type: cell-based; conditions: one hour, same concentrations
T1 construct: host or cells: HeLa cells
Protocol: (§1) Five EGFP-PKC isoforms (Clontech) were available for this experiment, enabling the screening of the three predominant PKC families (i.e. classical, novel and atypical PKCs). The members of the various PKC families are α, β, and γ (classical), θ (novel) and ζ (atypical).
(§2) HeLa cells were plated out in a 24-well plate containing coverslips and transfected with PKC isoforms fused to EGFP, using a commercially available effectine-transfection kit (QIAGEN, Pty. Ltd.). Cells were exposed to the transfection reagents for 16-24 hr. Subsequently, transfected cells were treated for one hour with TPA (100 ng/mL), bryostatin-1 (5 pg/mL), PEP003 (2.25 μg/mL; 5 μM) or PEP005 ([…]) 1.5 μM). Following treatment, cells were fixed on coverslips and mounted on glass slides. The slides were subsequently examined visually by fluorescence microscopy, photographed, and over 150 cells were counted/treatment/PKC isoform. Counted cells were classified according to the localisation of the PKC-EGFP fluorescence as either cytoplasmic or plasma membrane using ImagePro™ 4.1 (FIG. 5). […] The number of these cells was also counted. Results are presented as an average and standard deviation of percentages of cells (Table 1).

[2] = biological target: T2, PKCγ (Homo sapiens, UniProt P05129); experiment: EGFP-PKC translocation in HeLa cells (PKCγ); type: cell-based; conditions: one hour
T2 construct: host or cells: HeLa cells
Protocol: as §1, §2

[3] = tested on: HIV-1 LAI strain in U1 cells; experiment: Activation of latent HIV from U1 cells (p24 ELISA); type: cell-based; conditions: 20 hr culture
Description: A latently HIV-1 infected cell line (U1), derived from the promonocytic cell line U937 after infection with HIV-1 LAI strain, was used in these experiments. In the absence of activation, no or little virus (measured as p24 production) is produced by the U1 cell line. Phorbol esters are known to activate virus production from these cells (Tobiume et al., 1998) and so TPA/PMA was used as a positive control in these experiments.
Supernatants were collected and viral replication monitored by determination of the amounts of HIV p24 gag protein in the culture supernatants by ELISA, using a NEN Life Science HIV-1 p24 ELISA kit. p24 values were calculated from OD values using a standard curve.

[4] = tested on: rat brain PKC; experiment: PKC kinase activity, PepTag non-radioactive protein kinase assay; type: biochemical; conditions: PepTag gel; various dilutions of TPA; ether extract final dilution 1 in 5; crude sap and aqueous layer diluted 1/25
Protocol: The kinase activity of rat brain PKC (Promega) was determined using the Peptag™ Non-Radioactive Protein Kinase Kit (Promega). Using agarose gel electrophoresis the technique visualises the opposing electrostatic charge of a fluorescently labeled peptide ([sequence]) compared to the phosphorylated version of the same peptide.
The reaction mixture was separated by gel electrophoresis, showing migration of the unreacted substrate (a) to the anode (top), and the product (b), which is more negatively charged because of phosphorylation by PKC, moving towards the cathode (bottom).

[5] = tested on: EBV in Burkitt's lymphoma cell lines (Mutul, BL74) and an LCL; experiment: EBV activation (VCA western blot) in Burkitt's lymphoma cell lines and LCL; type: cell-based
Protocol: To ensure that equal amounts of each sample were analyzed, the gels were stained with Coomassie blue and the loadings were adjusted to make them equal. […] Next the PEP003 and PEP004 were assayed on two Burkitt's lymphoma cell lines and an LCL. This time only concentrations of 10^−5 and 10^−7 were used.

[6] = biological target: T3, PKCζ (Homo sapiens, UniProt Q05513); experiment: EGFP-PKC translocation in HeLa cells (PKCζ); type: cell-based; conditions: one hour, same concentrations
T3 construct: host or cells: HeLa cells
T3 sequence (Q05513 1-592): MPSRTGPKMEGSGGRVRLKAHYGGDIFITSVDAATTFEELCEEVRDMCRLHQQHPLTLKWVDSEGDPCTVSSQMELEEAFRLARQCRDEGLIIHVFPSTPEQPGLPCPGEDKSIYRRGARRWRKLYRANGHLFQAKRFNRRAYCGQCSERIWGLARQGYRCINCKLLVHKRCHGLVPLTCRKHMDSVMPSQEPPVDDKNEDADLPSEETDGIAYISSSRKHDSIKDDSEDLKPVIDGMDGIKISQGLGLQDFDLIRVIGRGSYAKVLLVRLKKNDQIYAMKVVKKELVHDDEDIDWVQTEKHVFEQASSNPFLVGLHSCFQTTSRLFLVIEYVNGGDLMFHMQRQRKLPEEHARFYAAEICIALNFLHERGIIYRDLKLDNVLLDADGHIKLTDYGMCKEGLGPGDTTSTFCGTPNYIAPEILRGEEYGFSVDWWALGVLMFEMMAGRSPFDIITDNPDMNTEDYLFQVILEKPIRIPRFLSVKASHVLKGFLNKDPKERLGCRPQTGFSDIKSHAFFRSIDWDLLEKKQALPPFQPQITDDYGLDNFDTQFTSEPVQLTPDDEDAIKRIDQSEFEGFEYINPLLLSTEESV
Protocol: as §1, §2

[7] = biological target: T4, PKCβ (Homo sapiens, UniProt P05771); experiment: EGFP-PKC translocation in HeLa cells (PKCβ); type: cell-based; conditions: one hour
T4 construct: host or cells: HeLa cells
Protocol: as §1, §2

[8] = tested on: peripheral blood mononuclear cells; experiment: Phagocytosis with fluorescent beads; type: cell-based; conditions: 30 min, whole heparinized blood
Protocol: Phagocytosis by peripheral blood mononuclear cells (PBMCs) was assayed (Steinkamp et al., 1982) using 1 μm Fluoresbrite™ yellow-green fluorescent latex spheres (Polysciences, Inc., Warrington, Pa.). A sample of whole, heparinized blood was treated with drug and 5×10E7 fluorescent latex beads in 10 μL of PBS added per mL of suspension. Cells were incubated and maintained in suspension for 30 min by means of a shaker platform at 37° C. The stimulated and non-stimulated samples were then lysed to isolate PBMCs. The PBMCs were run on the flow cytometer measuring FITC (excitation at 488 nm, emission at 525±20 nm), gated for fluorescence (phagocytosed spheres) and light scatter (cell size).

[9] = tested on: Peripheral blood mononuclear cells (granulocytes, monocytes, lymphocytes); experiment: Respiratory burst, DCFH-DA H2O2 flow cytometry; type: cell-based; conditions: bisindolylmaleimide 10 ng/mL or 1 ng/mL
Protocol: Experiments were also carried out using 2′,7′-dichlorofluorescein diacetate (DCFH-DA) to measure the production of H2O2. (J P Robinson, Oxidative burst methods, in Handbook of Flow Cytometry Methods, Wiley-Liss Inc, pp 147-149, 1993). H2O2 oxidizes the non-fluorescent probe (DCFH-DA) to a fluorescent probe that can then be detected by a flow cytometer. Peripheral blood mononuclear cells (PBMC) were extracted from a donor blood sample by lysis of heparinized blood and used in a suspension of 1×10^6/mL of phosphate buffer, pH 7.3. The cells were then incubated with DCFH-DA (1 μL/mL of 20 mM stock) for 15 minutes to allow it to be taken up and trapped by hydrolysis with cellular esterases. The cells were then stimulated by test compounds for 15 min at 37° C. Controls included in the experiment were unloaded control (cells with no DCFH-DA) and loaded control (cells with DCFH-DA, but no stimulation). These were used to monitor the non-specific oxidation of unstimulated cells. The cells were then analyzed on the flow cytometer (excitation at 488 nm, emission at 525±20 nm), gating each sample for individual cell populations—granulocytes, monocytes and lymphocytes (Table 3).

[10] = TPA 100 ng/mL, bryostatin-1 5 pg/mL, PEP003 2.25 μg/mL (5 μM), PEP005 670 μg/mL (1.5 μM)

T4 sequence (P05771 whole entry, species assumed): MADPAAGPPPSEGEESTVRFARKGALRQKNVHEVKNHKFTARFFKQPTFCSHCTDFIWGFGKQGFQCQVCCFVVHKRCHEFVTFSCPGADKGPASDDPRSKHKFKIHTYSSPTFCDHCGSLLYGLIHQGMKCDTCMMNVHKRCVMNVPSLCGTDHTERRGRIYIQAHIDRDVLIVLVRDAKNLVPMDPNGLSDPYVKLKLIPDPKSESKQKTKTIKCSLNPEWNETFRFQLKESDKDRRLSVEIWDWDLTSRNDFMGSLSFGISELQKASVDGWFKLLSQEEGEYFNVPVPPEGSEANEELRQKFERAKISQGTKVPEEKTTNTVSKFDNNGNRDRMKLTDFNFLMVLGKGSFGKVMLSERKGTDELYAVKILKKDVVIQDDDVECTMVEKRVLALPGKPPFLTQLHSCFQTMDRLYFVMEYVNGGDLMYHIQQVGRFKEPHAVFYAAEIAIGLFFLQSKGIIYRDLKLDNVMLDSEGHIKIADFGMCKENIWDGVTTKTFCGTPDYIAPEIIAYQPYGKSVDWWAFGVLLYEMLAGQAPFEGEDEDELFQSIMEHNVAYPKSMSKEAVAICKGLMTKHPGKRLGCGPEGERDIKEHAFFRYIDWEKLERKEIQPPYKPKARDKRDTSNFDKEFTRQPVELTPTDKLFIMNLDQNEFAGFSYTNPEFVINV
T1 sequence (Q04759 whole entry): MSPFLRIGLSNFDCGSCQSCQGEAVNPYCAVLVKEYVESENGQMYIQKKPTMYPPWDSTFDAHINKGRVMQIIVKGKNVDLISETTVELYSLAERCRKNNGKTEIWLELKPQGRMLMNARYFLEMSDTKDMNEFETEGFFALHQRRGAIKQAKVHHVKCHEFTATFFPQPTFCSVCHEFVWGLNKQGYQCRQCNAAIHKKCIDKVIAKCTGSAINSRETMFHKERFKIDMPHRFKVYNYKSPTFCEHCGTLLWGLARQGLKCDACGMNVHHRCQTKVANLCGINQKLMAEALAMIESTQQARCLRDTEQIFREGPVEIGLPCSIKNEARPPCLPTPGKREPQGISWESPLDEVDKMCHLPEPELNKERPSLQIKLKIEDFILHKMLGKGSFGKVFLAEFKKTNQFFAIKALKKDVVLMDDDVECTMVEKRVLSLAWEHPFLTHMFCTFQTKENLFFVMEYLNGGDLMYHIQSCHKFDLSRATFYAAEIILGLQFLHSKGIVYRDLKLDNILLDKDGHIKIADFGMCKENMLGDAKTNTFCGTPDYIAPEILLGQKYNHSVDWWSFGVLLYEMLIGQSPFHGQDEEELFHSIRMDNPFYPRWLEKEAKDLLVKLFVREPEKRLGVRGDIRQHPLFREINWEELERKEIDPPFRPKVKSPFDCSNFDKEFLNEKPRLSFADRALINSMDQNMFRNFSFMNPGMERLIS

CCCCCCCCCCCCCC(=O)O[C@@H]1[C@@H](C)[C@@]2(O)[C@@H](C=C(CO)C[C@]3(O)C(=O)C(C)=C[C@@H]23)C2C(C)(C)[C@@]21OC(C)=O (single isomer, unassigned) [TPA]
translocation of PKCθ [1]: translocated | number of PKCγ transfected cells displaying Golgi-like fluorescence [2]: increase in the number of cells displaying Golgi-like fluorescence | translocation of PKCγ from cytoplasm to plasma membrane [2, 10]: translocated from the cytoplasm to the plasma membrane | activation of HIV from U1 cells (p24 production) [3]: activated HIV from U1 cells | activation of PKC (FIG. 1) [4]: showed activation of PKC | induction of VCA in Mutul cells [5]: did not | translocation of PKCζ [6]: fail to induce translocation | number of PKCβ transfected cells with Golgi-like fluorescence [7]: increase in Golgi-like fluorescence | translocation of PKCβ from cytoplasm to plasma membrane [7, 10]: translocated from the cytoplasm to the plasma membrane | phagocytosis of fluorescent latex spheres in PBMCs [8]: stimulate phagocytosis | respiratory burst with bisindolylmaleimide added [9]: blocked
